Literature values in patent US8021659B2, “Coenzyme Q10, lactoferrin and angiogenin compositions and uses thereof” (Naidu LP, priority 2006, dated 2011).
Like-named read-outs stand apart in the source and are kept apart here.

Assays:
[1] = human plasma

| elimination half-life (excretion primarily through the biliary tract) | time to peak levels of CoQ-10 in the plasma (following oral administration) | orally administered CoQ-10 excreted in the feces (oral administration) | serum concentrations (regular doses of 30-60 mg/day) | serum concentrations (therapeutic doses of 100-200 mg/day) | Compound | half-life (turnover rate) [1] |
| --- | --- | --- | --- | --- | --- | --- |
| approximately 34 hours | 5 to 10 h | more than 60% | 700 to 1000 ng/mL | 2000 to 3000 ng/mL | COC1=C(OC)C(=O)C(C/C=C(\C)CC/C=C(\C)CC/C=C(\C)CC/C=C(\C)CC/C=C(\C)CC/C=C(\C)CC/C=C(\C)CC/C=C(\C)CC/C=C(\C)CCC=C(C)C)=C(C)C1=O [CoQ-10, 2,3-dimethoxy-5-methyl-6-decaprenyl-1,4-benzoquinone] | – |
| – | – | – | – | – | AGN: 14-kDa, basic heparin-binding protein and a member of the pancreatic ribonuclease superfamily | < 5 min |
